Data: patent US11040112B2, “Lipids and lipid nanoparticle formulations for delivery of nucleic acids” (Acuitas Therapeutics, Inc., priority 2015, dated 2021)

Legend:
[1] = tested on: luciferase expression in the liver; assay: Luciferase mRNA in vivo evaluation: luciferase expression in the liver after tail vein injection of FLuc mRNA lipid nanoparticles; design: species or system mice; conditions: liver 4 hours after administration; for Liver Luc @ 0.3 mg/kg (ng luc/g liver): 0.3 mg mRNA/kg; for Liver Luc @ 1.0 mg/kg (ng luc/g liver): 1.0 mg mRNA/kg
Description: Cationic lipid, DSPC, cholesterol and PEG-lipid were solubilized in ethanol at a molar ratio of 50:10:38.5:1.5 or 47.5:10:40.8:1.7. Lipid nanoparticles (LNP) were prepared at a total lipid to mRNA weight ratio of approximately 10:1 to 30:1. Briefly, the mRNA was diluted to 0.2 mg/mL in 10 to 50 mM citrate buffer, pH 4. Syringe pumps were used to mix the ethanolic lipid solution with the mRNA aqueous solution at a ratio of about 1:5 to 1:3 (vol/vol) with total flow rates above 15 ml/min. The ethanol was then removed and the external buffer replaced with PBS by dialysis. Finally, the lipid nanoparticles were filtered through a 0.2 μm pore sterile filter. Lipid nanoparticle particle size was approximately 55-95 nm diameter, and in some instances approximately 70-90 nm diameter as determined by quasi-elastic light scattering using a Malvern Zetasizer Nano ZS (Malvern, UK).
Studies were performed in 6-8 week old female C57BL/6 mice (Charles River) 8-10 week old CD-1 (Harlan) mice (Charles River) according to guidelines established by an institutional animal care committee (ACC) and the Canadian Council on Animal Care (CCAC). Varying doses of mRNA-lipid nanoparticle were systemically administered by tail vein injection and animals euthanized at a specific time point (e.g 4 hrs) post-administration. Liver and spleen were collected in pre-weighed tubes, weights determined, immediately snap frozen in liquid nitrogen and stored at −80° C. until processing for analysis.
For liver, approximately 50 mg was dissected for analyses in a 2 mL FastPrep tubes (MP Biomedicals, Solon Ohio). ¼″ ceramic sphere (MP Biomedicals) was added to each tube and 500 μL of Glo Lysis Buffer—GLB (Promega, Madison Wis.) equilibrated to room temperature was added to liver tissue. Liver tissues were homogenized with the FastPrep24 instrument (MP Biomedicals) at 2×6.0 m/s for 15 seconds. Homogenate was incubated at room temperature for 5 minutes prior to a 1:4 dilution in GLB and assessed using SteadyGlo Luciferase assay system (Promega). Specifically, 50 μL of diluted tissue homogenate was reacted with 50 μL of SteadyGlo substrate, shaken for 10 seconds followed by 5 minute incubation and then quantitated using a CentroXS^3 LB 960 luminometer (Berthold Technologies, Germany). The amount of protein assayed was determined by using the BCA protein assay kit (Pierce, Rockford Ill.). Relative luminescence units (RLU) were then normalized to total ug protein assayed. To convert RLU to ng luciferase a standard curve was generated with QuantiLum Recombinant Luciferase (Promega). Based in the data provided in FIG. 1, the four-hour time point was chosen for efficacy evaluation of the lipid formulations.
The FLuc mRNA (L-6107) from Trilink Biotechnologies will express a luciferase protein, originally isolated from the firefly, Photinus pyralis. FLuc is commonly used in mammalian cell culture to measure both gene expression and cell viability. It emits bioluminescence in the presence of the substrate, luciferin. This capped and polyadenylated mRNA is fully substituted with 5-methylcytidine and pseudouridine.
The cationic lipids shown in Table 2 have previously been tested with nucleic acids. For comparative purposes, these lipids were also used to formulate lipid nanoparticles containing the FLuc mRNA (L-6107) using an in line mixing method, as described in Example 1 and in PCT/US10/22614, which is hereby incorporated by reference in its entirety. […]

[2] = Determination of pKa of formulated lipids in lipid nanoparticles (TNS fluorescence assay); assay type: physicochemical; conditions: pKa of cationic lipid in LNP (cationic lipid/DSPC/cholesterol/PEG-lipid 50/10/38.5/1.5 mol %), pH of half-maximal intensity
Description: As described elsewhere, the pKa of formulated cationic lipids is correlated with the effectiveness of LNPs for delivery of nucleic acids (see Jayaraman et al, Angewandte Chemie, International Edition (2012), 51(34), 8529-8533; Semple et al, Nature Biotechnology 28, 172-176 (2010)). The preferred range of pKa is ˜5 to ˜7. […] Lipid nanoparticles comprising of cationic lipid/DSPC/cholesterol/PEG-lipid (50/10/38.5/1.5 mol %) in PBS at a concentration of 0.4 mM total lipid are prepared using the in-line process as described in Example 1. TNS was prepared as a 100 μM stock solution in distilled water. Vesicles were diluted to 24 μM lipid in 2 mL of buffered solutions containing, 10 mM HEPES, 10 mM MES, 10 mM ammonium acetate, 130 mM NaCl, where the pH ranged from 2.5 to 11. An aliquot of the TNS solution was added to give a final concentration of 1 μM and following vortex mixing fluorescence intensity was measured at room temperature in a SLM Aminco Series 2 Luminescence Spectrophotometer using excitation and emission wavelengths of 321 nm and 445 nm. A sigmoidal best fit analysis was applied to the fluorescence data and the pKa was measured as the pH giving rise to half-maximal fluorescence intensity (see FIG. 2).

[3] = Lipid Ratio A: 50% cationic lipid/10% DSPC/38.5% cholesterol/1.5% PEG lipid (PEG-DMA)
[4] = Lipid Ratio B: 47.5% cationic lipid/10% DSPC/40.8% cholesterol/1.7% PEG lipid

| Compound | Liver Luc @ 0.3 mg/kg (ng luc/g liver) [1, 3] [ng luc/g liver] | Liver Luc @ 1.0 mg/kg (ng luc/g liver) [1, 3] [ng luc/g liver] | pKa [2] | Liver Luc @ 0.3 mg/kg (ng luc/g liver) [1, 4] [ng luc/g liver] | Liver Luc @ 1.0 mg/kg (ng luc/g liver) [1, 4] [ng luc/g liver] |
| --- | --- | --- | --- | --- | --- |
| CCCCCCCCC(CCCCCC)C(=O)OCCCCCCN(CCO)CCCCCCOC(=O)C(CCCCCC)CCCCCCCC (stereo not drawn) [Compound 1] | 467 ± 72 | 3780 ± 210 | 5.89 |  |  |
| CCCCCCCCC(CCCCCC)C(=O)OCCCCCCN(CCCO)CCCCCCOC(=O)C(CCCCCC)CCCCCCCC (stereo not drawn) [Compound 2] | 1195 ± 245 | 10059 ± 3833 | 6.05 |  |  |
| CCCCCCCCC(CCCCCC)C(=O)OCCCCCCN(CCCCO)CCCCCCOC(=O)C(CCCCCC)CCCCCCCC (stereo not drawn) [Compound 3] | 1275 ± 410 | 10643 ± 1858 | 6.09 |  |  |
| CCCCCCCCC(CCCCCC)C(=O)OCCCCN(CCCCO)CCCCOC(=O)C(CCCCCC)CCCCCCCC (stereo not drawn) [Compound 4] | 378 ± 82 | 1952 ± 940 | 5.6 |  |  |
| CCCCCCCCC(CCCCCC)C(=O)OCCCCN(CCCO)CCCCOC(=O)C(CCCCCC)CCCCCCCC (stereo not drawn) [Compound 5] | 183 ± 45 | 713 ± 298 | 5.59 |  |  |
| CCCCCCCCC(CCCCCC)C(=O)OCCCCN(CCO)CCCCOC(=O)C(CCCCCC)CCCCCCCC (stereo not drawn) [Compound 6] | 122 ± 49 | 520 ± 365 | 5.42 |  |  |
| CCCCCCCCC(CCCCCC)C(=O)OCCCCCCN(CCCCCO)CCCCCCOC(=O)C(CCCCCC)CCCCCCCC (stereo not drawn) [Compound 7] | 1158 ± 136 | 8406 ± 2335 | 6.11 |  |  |
| CCCCCCCCC(CCCCCC)C(=O)OCCCCCCN(CCCCCCO)CCCCCCOC(=O)C(CCCCCC)CCCCCCCC (stereo not drawn) [Compound 8] | 1467 ± 943 | 7230 ± 2290 | 5.84 |  |  |
| CCCCCCCCC(CCCCCC)COC(=O)CCCCN(CCCCO)CCCCC(=O)OCC(CCCCCC)CCCCCCCC (stereo not drawn) [Compound 15] | 247 ± 25 | 1633 ± 449 | 6.14 |  |  |
| CCCCCCCCC(CCCCCC)COC(=O)CCCCCN(CCCO)CCCCCC(=O)OCC(CCCCCC)CCCCCCCC (stereo not drawn) [Compound 16] | 344 ± 133 | 2633 ± 1140 | 6.31 |  |  |
| CCCCCCCCC(CCCCCC)COC(=O)CCCCCN(CCCCO)CCCCCC(=O)OCC(CCCCCC)CCCCCCCC (stereo not drawn) [Compound 17] | 275 ± 139 | 1554 ± 761 | 6.28 |  |  |
| CCCCCCCCC(CCCCCC)COC(=O)CCCCCCCN(CCCCO)CCCCCCCC(=O)OCC(CCCCCC)CCCCCCCC (stereo not drawn) [Compound 20] |  |  | 6.36 | 691 ± 150 | 4279 ± 2226 |
| CCCCCCCCC(CCCCCC)C(=O)OCCCCCCCCCN(CCCCO)CCCCCCCCCOC(=O)C(CCCCCC)CCCCCCCC (stereo not drawn) [Compound 22] | 660 ± 184 | 7533 ± 4499 | 6.1 |  |  |
| CCCCCCCCC(CCCCCC)C(=O)OCCCCCCCCCCCCN(CCCCO)CCCCCCCCCCCCOC(=O)C(CCCCCC)CCCCCCCC (stereo not drawn) [Compound 23] | 137 ± 51 | 487 ± 209 | 5.98 |  |  |
| CCCCCCC(CCCC)C(=O)OCCCCCCCCCN(CCCCO)CCCCCCCCCOC(=O)C(CCCC)CCCCCC (stereo not drawn) [Compound 25] | 1648 ± 534 | 13880 ± 5083 | 6.22 |  |  |
| CCCCCCCCCCC(CCCCCCCC)C(=O)OCCCCCCN(CCCCO)CCCCCCOC(=O)C(CCCCCCCC)CCCCCCCCCC (stereo not drawn) [Compound 26] | 1143 ± 782 | 1238 ± 1686 | 5.84 |  |  |
| CCCCCCCCCCCCC(CCCCCCCCCC)C(=O)OCCCCCCN(CCCCO)CCCCCCOC(=O)C(CCCCCCCCCC)CCCCCCCCCCCC (stereo not drawn) [Compound 27] | 110 ± 42 | 1088 ± 802 | 5.77 |  |  |
| CCCCCCCCC(CCCCCC)C(=O)OCCCCCCN(CCCCCCOC(=O)C(CCCCCC)CCCCCCCC)CC(O)CO (stereo not drawn) [Compound 30] | 49 ± 17 | 237 ± 92 | 6.09 |  |  |
| CCCCCCCCCCC(CCCCCCCC)C(=O)OCCCCCCN(CCCO)CCCCCCOC(=O)C(CCCCCCCC)CCCCCCCCCC (stereo not drawn) [Compound 37] | 1244 ± 907 | 2035 ± 498 | 5.89 |  |  |
| CCCCCCCCC(CCCCCC)C(=O)OCCCCCCCCCCCCN(CCCO)CCCCCCCCCCCCOC(=O)C(CCCCCC)CCCCCCCC (stereo not drawn) [Compound 38] | 60 ± 5 | 365 ± 181 | 6.1 |  |  |
| CCCCCCCCCCCCC(CCCCCCCCCC)C(=O)OCCCCCCN(CCCO)CCCCCCOC(=O)C(CCCCCCCCCC)CCCCCCCCCCCC (stereo not drawn) [Compound 44] |  |  | 5.79 | 23 ± 11 | 342 ± 229 |
